Test results taken from US7968724B2, “Ester derivatives as phosphodiesterase inhibitors” (Chiesi Farmaceutici S.p.A., priority 2007, dated 2011).

Columns and labels:
LPDE4 [1] = assay: Ability to inhibit low affinity LPDE4 (cAMP disappearance) versus competing for high affinity HPDE4 ([H3]rolipram binding); assay type: biochemical
Excerpt: Advantageously the compounds of the invention are characterized by a selectivity toward LPDE4 higher than that toward HPDE4 as obtained by the determination of their IC50. In the case of LPDE4, the IC50 is the molar concentration of the test compound producing 50% inhibition of cAMP disappearance, assessed as described in Cortijo J et al., Br. J. Pharmacol., 1993, 108: 562-568, while in the case of HPDE4, the IC50 is the molar concentration of the test compound producing 50% inhibition of the binding of [H^3] rolipram, assessed as described in Duplantier A J et al., J. Med. Chem., 1996; 39: 120-125. Preferably the HPDE4/LPDE IC50 ratio for the compounds of the invention is higher than 10, more preferably higher than 100, even more preferably higher than 300.
The affinity toward LPDE4 and HPDE4 is assessed as previously described respectively in Cortijo J et al., Br. J. Pharmacol., 1993, 108: 562-568 and Duplantier A J et al., J. Med. Chem., 1996; 39: 120-125. The activity of compounds 1, 2, 4, 5, 6, and 7 is evaluated.

[2] = tested on: LPS-induced TNF-α release in peripheral blood mononuclear cells (PBMCs); assay: PDE4 inhibitory activity in the PBMCs assay (LPS-induced TNF-α release); assay type: cell-based; settings: PBMC; human PBMCs, LPS 3 ng/ml, 18 hours; read-out: IC50 in the PBMCs assay (50% inhibition of LPS-induced TNF-α release)
Experimental: The assay, which is based on the known inhibitory activity exerted by PDE4 inhibitors on the lipopolyshaccarides (LPS)-induced tumour necrosis factor-alpha (TNF-α release in peripheral blood mononuclear cells (PBMCs), is performed according to a method previously described (Hatzelmann A et al., J. Pharmacol. Exp. Ther., 2001; 297:267-279; and Draheim R et al., J. Pharmacol. Exp. Ther., 2004; 308:555-563. Cryopreserved human PBMCs, (100 μl/well) are incubated in 96-well plates (10^5 cells/well), for 30 minutes, in the presence or absence (50 microl) of the test compounds whose concentrations ranged from 10^−12 M to 10^−6 M. Subsequently, LPS (3 ng/ml) is added. After 18 hours of incubation at 37° C. in a humidified incubator under an atmosphere of 95% air and 5% CO2, culture medium is collected and TNF-α measured by ELISA.
The results are expressed as mean±95% confidence limits of the molar concentration of the test compound producing 50% inhibition of LPS-induced TNF-α release (IC50). […] The effects of the tested compounds are calculated as percentage of inhibition of TNF-α release, assuming LPS-induced TNF-α production in the absence of inhibitor compound as 100% and basal TNF-α production of PBMCs in the absence of LPS as 0%.

HPDE4 = settings: literature, Giembycz et al. 2001; cited from earlier work
LPDE4 [3] = settings: literature, Giembycz et al. 2001; cited from earlier work

SMILES: COc1ccc(C(=Cc2c(Cl)cncc2Cl)OC(=O)c2ccccc2)c2c1oc1ccc([N+](=O)[O-])cc12 [Compound 1, Benzoic acid 2-(3,5-dichloro-pyridin-4-yl)-1-(4-methoxy-8-nitro-dibenzofuran-1-yl)-vinyl ester]
- inhibition of LPDE4 (affinity) (LPDE4 [1]): nanomolar affinity
- IC50 [2]: 1 to 150 nM

SMILES: COc1ccc(C(=Cc2c(Cl)cncc2Cl)OC(=O)c2ccccc2)c2c1oc1ccc(NS(C)(=O)=O)cc12 [Compound 5, Benzoic acid 2-(3,5-dichloro-pyridin-4-yl)-1-(8-methanesulfonylamino-4-methoxy-dibenzofuran-1-yl)-vinyl ester]
- inhibition of LPDE4 (affinity) (LPDE4 [1]): nanomolar affinity
- IC50 [2]: 1 to 150 nM

SMILES: COc1ccc(C(=Cc2c(Cl)cncc2Cl)OC(=O)c2ccccc2)c2c1oc1ccccc12 [Compound 2, Benzoic acid 2-(3,5-dichloro-pyridin-4-yl)-1-(4-methoxy-dibenzofuran-1-yl)-vinyl ester]
- inhibition of LPDE4 (affinity) (LPDE4 [1]): nanomolar affinity
- IC50 [2]: 1 to 150 nM

SMILES: COc1ccc(C(=Cc2c(Cl)c[n+]([O-])cc2Cl)OC(=O)c2ccccc2)c2c1oc1ccccc12 [Compound 7, Benzoic acid 2-(3,5-dichloro-1-oxy-pyridin-4-yl)-1-(4-methoxy-dibenzofuran-1-yl)-vinyl ester]
- inhibition of LPDE4 (affinity) (LPDE4 [1]): nanomolar affinity
- IC50 [2]: 1 to 150 nM

SMILES: COc1ccc(C(=Cc2c(Cl)cncc2Cl)OC(=O)c2ccccc2)c2c1oc1ccc(N)cc12 [Compound 4, Benzoic acid 2-(3,5-dichloro-pyridin-4-yl)-1-(4-methoxy-8-amino-dibenzofuran-1-yl)-vinyl ester]
- inhibition of LPDE4 (affinity) (LPDE4 [1]): nanomolar affinity
- IC50 [2]: 1 to 150 nM

SMILES: COc1ccc(C(=Cc2c(Cl)c[n+]([O-])cc2Cl)OC(=O)c2ccccc2)c2c1oc1ccc([N+](=O)[O-])cc12 [Compound 6, Benzoic acid 2-(3,5-dichloro-1-oxy-pyridin-4-yl)-1-(4-methoxy-8-nitro-dibenzofuran-1-yl)-vinyl ester]
- inhibition of LPDE4 (affinity) (LPDE4 [1]): nanomolar affinity

SMILES: COc1ccc([C@]2(C#N)CC[C@@H](C(=O)O)CC2)cc1OC1CCCC1 [cilomilast]
- IC50 (HPDE4): 120 nM
- HPDE4/LPDE4 ratio (LPDE4 [3]): about 1.3
- IC50 (LPDE4 [3]): 90 nM
